Like-named read-outs stand apart in the source and are kept apart here.
Assays:
[1] = tested on: Bacillus subtilis (vegetative); assay: Bacteriological sterility: log reduction on cortical bone samples; assay type: cell-based; conditions: single process step; for Microbiological Log Reductions T2: full cycle time; for Microbiological Log Reductions T1: one quarter cycle time
Description: (§1) Bacteriological Sterility: Cortical bone samples were subjected to the previous steps of the process. […] The samples were assayed for bacteria activity, using standard assays.

[2] = tested on: Candida albicans; assay: as above; assay type: cell-based; conditions: single process step; for Microbiological Log Reductions T2: full cycle time; for Microbiological Log Reductions T1: one quarter cycle time
Description: as §1

[3] = tested on: Escherichia coli; assay: as above; assay type: cell-based; conditions: single process step; for Microbiological Log Reductions T2: full cycle time; for Microbiological Log Reductions T1: one quarter cycle time
Description: as §1

[4] = tested on: Pseudomonas aeruginosa; assay: as above; assay type: cell-based; conditions: single process step; for Microbiological Log Reductions T2: full cycle time; for Microbiological Log Reductions T1: one quarter cycle time
Description: as §1

[5] = tested on: Staphylococcus aureus; assay: as above; assay type: cell-based; conditions: single process step; for Microbiological Log Reductions T2: full cycle time; for Microbiological Log Reductions T1: one quarter cycle time
Description: as §1

[6] = tested on: Staphylococcus epidermidis; assay: as above; assay type: cell-based; conditions: single process step; for Microbiological Log Reductions T2: full cycle time; for Microbiological Log Reductions T1: one quarter cycle time
Description: as §1

[7] = 32% DBM in hyaluronan carrier, histology after 28 days
Description: Osteoinductivity: Cortical bone from three donors ([…], […], […]) was processed using a control process, 0 hour H2O2 with no sonication, a treatment process with 1 hour, 3 hours, and 5 hours of H2O2 treatment, and a negative control. After processing, the bone was ground, demineralized, and prepared into 32% Demineralized Bone Matrix in a hyaluronan carrier. Samples (15 mg) were implanted bilaterally into the hamstring muscle in an athymic mouse model, approved by the University of Medicine and Dentistry of New Jersey animal care and use committee. Implants were evaluated histologically after 28 days.

With Triton X-100 the “Microbiological Log Reductions T2” value [1] was 2.41 Log, the “Microbiological Log Reductions T1” value [1] was 2.56 Log and the “Microbiological Log Reductions T2” value [2] was 1.58 Log. For the same compound, the “Microbiological Log Reductions T1” value [2] was 1.78 Log, the “Microbiological Log Reductions T2” value [3] was 1.82 Log and the “Microbiological Log Reductions T1” value [3] was 0.03 Log. For the same compound, the “Microbiological Log Reductions T2” value [4] was 3.40 Log, the “Microbiological Log Reductions T1” value [4] was 2.48 Log and the “Microbiological Log Reductions T2” value [5] was 0.20 Log. The “Microbiological Log Reductions T1” value [5] was −0.59 Log, the “Microbiological Log Reductions T2” value [6] was 0.41 Log and the “Microbiological Log Reductions T1” value [6] was 0.56 Log.

With `OO` [H2O2, hydrogen peroxide] the “Microbiological Log Reductions T2” value [1] was over 5.25 Log, the “Microbiological Log Reductions T1” value [1] was over 5.25 Log and the “Microbiological Log Reductions T2” value [2] was over 5.10 Log. For the same compound, the “Microbiological Log Reductions T1” value [2] was over 5.47 Log, the “Microbiological Log Reductions T2” value [3] was over 5.19 Log and the “Microbiological Log Reductions T1” value [3] was over 5.19 Log. For the same compound, the “Microbiological Log Reductions T2” value [4] was over 5.09 Log, the “Microbiological Log Reductions T1” value [4] was over 5.09 Log and the “Microbiological Log Reductions T2” value [5] was over 5.93 Log. The “Microbiological Log Reductions T1” value [5] was over 5.93 Log, the “Microbiological Log Reductions T2” value [6] was over 5.21 Log and the “Microbiological Log Reductions T1” value [6] was over 5.21 Log. The “mean (SD) osteoinductivity score” value ([7]; 1 hour H2O2 treatment of bone) was 3.04 (0.97), the “mean (SD) osteoinductivity score” value ([7]; 3 hours H2O2 treatment of bone) was 2.57 (1.36) and the “mean (SD) osteoinductivity score” value ([7]; 5 hours H2O2 treatment of bone) was 1.47 (1.10).
